In patent US20260250318A1, “COMPOSITIONS AND METHODS FOR CROSSING THE BLOOD BRAIN BARRIER” (VOYAGER THERAPEUTICS, INC., priority 2022, published 2026):
Non-standard residues stand in square brackets, D forms with d. Residues, ends and D or L forms follow the SMILES beside them. *: point of attachment. Biotin = O=C1N[C@H]2[C@H](CS[C@H]2CCCCC(=O)*)N1; pS = N[C@@H](COP(=O)(O)O)C(=O)O

Assays:
ALPL [1] = biological target: T1, ALPL (Homo sapiens, UniProt P05186); experiment: SPR (Biacore 8K) binding of peptide ligands to ALPL; settings: for binding to ALPL by SPR, His-tagged ALPL captured on chip: 50 μM peptides or 250 nM capsids flowed over; for binding to ALPL by SPR, his-tagged ALPL captured on chip: peptides 0 to 50 μM
T1 sequence (P05186 18-501): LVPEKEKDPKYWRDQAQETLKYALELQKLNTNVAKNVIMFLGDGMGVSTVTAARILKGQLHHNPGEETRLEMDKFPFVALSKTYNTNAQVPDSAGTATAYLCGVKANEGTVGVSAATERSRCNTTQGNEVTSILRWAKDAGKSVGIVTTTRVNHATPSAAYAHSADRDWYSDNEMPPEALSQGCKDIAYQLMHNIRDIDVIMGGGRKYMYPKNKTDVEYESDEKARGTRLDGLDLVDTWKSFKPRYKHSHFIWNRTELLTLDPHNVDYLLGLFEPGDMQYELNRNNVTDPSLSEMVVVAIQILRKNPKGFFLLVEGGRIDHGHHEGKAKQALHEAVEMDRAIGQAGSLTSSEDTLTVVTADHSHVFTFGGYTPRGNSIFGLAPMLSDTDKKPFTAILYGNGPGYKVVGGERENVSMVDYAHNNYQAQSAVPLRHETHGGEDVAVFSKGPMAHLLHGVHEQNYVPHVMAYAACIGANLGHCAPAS
Method: Binding and interaction between the peptides and the ALPL receptor were measured by Surface Plasmon Resonance (SPR) on a Biacore 8K instrument. The biotinylated peptides in Table 37 were captured on the streptavidin biosensor chip and 1000 nM of ALPL and buffer were passed over the peptides to monitor binding. […] His-tagged ALPL was then captured on the chip pre-immobilized with anti-His antibody, and 50 μM of the peptides in Table 37 or 250 nM of the AAV9 control capsid, the TTM-001 capsid variant (SEQ ID NO: 981), or the TTM-002 capsid variant (SEQ ID NO: 982) were flowed over the ALPL to check for binding. […] The longer peptides derived from TTM-002,
were also flowed over the his-tagged ALPL captured on the CM5 sensor chip pre-immobilized with anti-His antibody.
Binding and interaction between the phosho-peptides and the ALPL receptor were also measured by SPR. The biotinylated and phosphorylated peptides in Table 38 were captured on the streptavidin biosensor chip along with their non-phosphorylated counterparts, […] (SEQ ID NO: 4500) and […] (SEQ ID NO: 4503). ALPL and buffer were passed over the peptides to monitor binding. The concentration of ALPL used ranged from 0 to 500 nM (0 nM, 125 nM, 250 nM, and 500 nM).
In a second experiment, his-tagged ALPL was first captured on a CM5 sensor chip pre-immobilized with anti-His antibody. The phosphorylated peptides in Table 38 and their non-phosphorylated counterparts, […] (SEQ ID NO: 4500) and […] (SEQ ID NO: 4503) and buffer were flowed over the ALPL protein to monitor binding.

[2] = biological target: human ALPL (soluble protein used in the ELISA and SPR of Example 14) (human) (UniProt P05186); experiment: SPR (Biacore), antibody captured on the chip, 1.6 to 1000 nM of human ALPL flowed over
His-tagged ALPL = biological target: T2, His-tagged ALPL (Homo sapiens, UniProt P05186); experiment: Bio Layer Interferometry (BLI)/Octet binding of peptides to ALPL; settings: for binding to ALPL by BLI/Octet: ALPL 1.56 to 100 nM
T2 sequence (P05186 18-501): T1 sequence (P05186 18-501)
Description: Binding of the phospho-peptides of SEQ ID NO: 4512 and SEQ ID NO: 4513 to ALPL was also investigated using Bio Layer Interferometry (BLI)/Octet.

ALPL [3] = biological target: T1, ALPL; experiment: biochemical; format: binding; settings: for binding to ALPL by ELISA: ALPL coated on wells
Description: Binding of the phospho-peptides of SEQ ID NO: 4512 and 4513 along with their non-phosphorylated counterparts, […] (SEQ ID NO: 4500) and […]

Compound | binding to ALPL by SPR, His-tagged ALPL captured on chip (ALPL [1]) | Kd (His-tagged ALPL) | koff (His-tagged ALPL) | kon (His-tagged ALPL) | binding to ALPL by BLI/Octet (His-tagged ALPL) | binding to ALPL by SPR, his-tagged ALPL captured on chip (ALPL [1]) | EC50 (ALPL [3]) | binding to ALPL by ELISA (ALPL [3]) | also measured
GSGSRLMNPLIDQYLYYLSKTINGHDSPHKSGQNQQTLKFSVAGPSNMAV [longer peptide derived from TTM-002] | no binding to ALPL was observed | – | – | – | – | – | – | – | –
Human Alkaline Phosphatase/ALPL Antibody, clone B4-78 (MAB1448-SP) | – | – | – | – | – | – | – | – | Kd [2]: 215 nM; koff [2]: 0.0015 s⁻¹; kon [2]: 6800 M⁻¹ s⁻¹
GSGSLYYLSKTINGHDSPHKSGQNQQTLKF [longer peptide derived from TTM-002] | no binding to ALPL was observed | – | – | – | – | – | – | – | –
NCCCC[C@H](NC(=O)[C@H](Cc1c[nH]cn1)NC(=O)[C@@H]1CCCN1C(=O)[C@H](COP(=O)(O)O)NC(=O)[C@H](CC(=O)O)NC(=O)[C@H](Cc1c[nH]cn1)NC(=O)CNC(=O)[C@H](CC(N)=O)NC(=O)[C@H](CO)NC(=O)CNC(=O)[C@H](CO)NC(=O)CNC(=O)CCCC[C@@H]1SC[C@@H]2NC(=O)N[C@@H]21)C(=O)N[C@@H](CO)C(=O)NCC(N)=O [SEQ ID NO: 4512] (Biotin-GSGSNGHD[pS]PHKSG-NH2) | – | 112 nM | 0.0026 s⁻¹ | 23000 M⁻¹ s⁻¹ | demonstrated binding to ALPL | low signal with dose dependency | 763 nM | dose-dependent binding to ALPL | –
CC[C@H](C)[C@H](NC(=O)[C@@H](NC(=O)[C@H](CCCCN)NC(=O)[C@H](CO)NC(=O)CNC(=O)[C@H](CO)NC(=O)CNC(=O)CCCC[C@@H]1SC[C@@H]2NC(=O)N[C@@H]21)[C@@H](C)O)C(=O)N[C@@H](CC(N)=O)C(=O)NCC(=O)N[C@@H](Cc1c[nH]cn1)C(=O)N[C@@H](CC(=O)O)C(=O)N[C@@H](COP(=O)(O)O)C(=O)N1CCC[C@H]1C(=O)N[C@@H](Cc1c[nH]cn1)C(=O)N[C@@H](CCCCN)C(=O)N[C@@H](CO)C(=O)NCC(=O)N[C@@H](CCC(N)=O)C(=O)N[C@@H](CC(N)=O)C(=O)N[C@@H](CCC(N)=O)C(N)=O [SEQ ID NO: 4513] (Biotin-GSGSKTINGHD[pS]PHKSGQNQ-NH2) | – | 20.7 nM | 0.00067 s⁻¹ | 32000 M⁻¹ s⁻¹ | demonstrated binding to ALPL | low signal with dose dependency | 4290 nM | dose-dependent binding to ALPL | binding to ALPL at a pH of 5.5 (His-tagged ALPL; pH 5.5): no binding was observed
